Measurements from ChEMBL document CHEMBL1201862, “PubChem BioAssay data set” (2004).
Active and inactive are the calls of the source.

Experiments:
[1] = target: Peroxisome proliferator-activated receptor gamma/Nuclear receptor coactivator 1 (Homo sapiens, UniProt P37231); assay: TR-FRET dose response biochemical High Throughput Screening assay for agonists of the steroid receptor coactivator 1 (SRC-1) recruitment by the peroxisome proliferator-activated receptor gamma (PPAR gamma): non-selective agonists. [Related pubchem assays (depositor defined):AID1300, AID1808, AID504735, AID631]; assay type: protein assay
[2] = target: Peroxisome proliferator-activated receptor gamma/Nuclear receptor coactivator 2 (Homo sapiens, UniProt P37231); assay: (§1) TR-FRET dose response biochemical High Throughput Screening assay for agonists of the steroid receptor coactivator 2 (SRC-2) recruitment by the peroxisome proliferator-activated receptor gamma (PPAR gamma): non-selective agonists. [Related pubchem assays: 1297, 1032 ]; assay type: functional
[3] = target: Peroxisome proliferator-activated receptor gamma/Nuclear receptor coactivator 3 (Homo sapiens, UniProt P37231); assay: as §1, with “3 (SRC-3)” for “2 (SRC-2)”, “1301 (Confirmation screen.), 1048 (Primary screen.)]” for “1297, 1032 ]”; assay type: functional
[4] = target: T1, Endoribonuclease toxin MazF (Escherichia coli K-12, UniProt P0AE70); assay: activation of MazEF endoribonuclease cleavage – biochemical, fluorescence, single-stranded RNA substrate, uHTS hits, dose response (AID 588481); assay type: functional
T1 sequence (P0AE70 whole entry): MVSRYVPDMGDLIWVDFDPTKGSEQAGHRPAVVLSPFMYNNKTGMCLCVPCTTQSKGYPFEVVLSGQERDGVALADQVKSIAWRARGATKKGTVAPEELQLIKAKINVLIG

SUMO-activating enzyme [5] = target: T2, SUMO-activating enzyme (Homo sapiens, UniProt Q9UBT2); assay: blockers of UBC9-mediated SUMO conjugation – biochemical, AlphaScreen, SUMOylation inhibitor project, confirmation (AID 2018); assay type: functional
Streptococcus = assay: GAS UMAA2166 growth inhibition – luminescence, BacTiterGlo, counter-screen for streptokinase expression inhibitor project, dose response (AID 1915); assay type: functional, organism-based;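 note: potency for reduction of bacterial viability or growth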
[6] = target: T3, Heat shock factor protein 1 (Mus musculus, UniProt P38532); assay: enhancement of HSF1-driven luciferase signal – cell-based, NIH3T3, luminescence, dose retest, confirmation (AID 435004); assay type: functional;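 note: stress induced by proteasome inhibitor MG132 added 30 min after compound; luciferase reporter driven by HSF1 response element in NIH3T3 cells; actives raise luminescence as potentiators of the MG132 stress response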
T3 sequence (P38532 whole entry): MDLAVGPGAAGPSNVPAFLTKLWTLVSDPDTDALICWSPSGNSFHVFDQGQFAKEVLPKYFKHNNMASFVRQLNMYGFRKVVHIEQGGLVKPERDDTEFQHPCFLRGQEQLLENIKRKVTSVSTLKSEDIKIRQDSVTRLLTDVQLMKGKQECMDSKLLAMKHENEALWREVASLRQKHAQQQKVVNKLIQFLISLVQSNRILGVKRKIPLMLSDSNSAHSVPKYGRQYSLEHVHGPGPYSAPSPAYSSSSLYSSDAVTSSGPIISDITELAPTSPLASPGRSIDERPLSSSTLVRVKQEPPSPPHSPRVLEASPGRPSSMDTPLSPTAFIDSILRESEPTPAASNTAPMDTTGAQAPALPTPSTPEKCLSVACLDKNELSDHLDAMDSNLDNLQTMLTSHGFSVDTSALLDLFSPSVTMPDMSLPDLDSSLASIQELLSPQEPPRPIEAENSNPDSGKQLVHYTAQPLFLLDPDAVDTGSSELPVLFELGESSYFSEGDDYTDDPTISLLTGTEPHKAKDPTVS

[7] = target: T1, Endoribonuclease toxin MazF; assay: substrate-only fluorescence increase artefacts – biochemical, single-stranded RNase substrate, counter-screen for MazEF activator project, dose response (AID 588502); assay type: functional
SUMO-activating enzyme [8] = target: T2, SUMO-activating enzyme; assay: blockers of SAE1/SAE2–UBC9 SUMO transfer – biochemical, HTRF, uHTS, primary screen (AID 2006); assay type: protein-complex assay
[9] = tested on: Streptococcus sp. 'group A'; assay: Streptococcus pyogenes SK(-)GAS viability under kanamycin – luminescence, BacTiterGlo, confirmation, counter-screen for streptokinase expression inhibitor project, dose response (AID 1900); assay type: functional, organism-based
INS1 = assay: INS-1E survival protection against cytokine death – cell-based, luminescence, retest, dose response (AID 449756); assay type: functional; settings: Rattus norvegicus;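 note: cell death triggered by IL-1 beta plus TNF-alpha plus IFN-gamma mixture; protective hits raise ATP signal compared with cytokine alone wells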
[10] = target: Dual specificity tyrosine-phosphorylation-regulated kinase 1A (Rattus norvegicus, UniProt Q63470); assay type: biochemical, Homo sapiens
[11] = target: Voltage-gated inwardly rectifying potassium channel KCNH2 (Homo sapiens, UniProt Q12809); settings: Potency;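 note: confirmatory quantitative high-throughput screen measuring inhibition of hERG channel activity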
[12] = target: Glucose-6-phosphate 1-dehydrogenase (Homo sapiens, UniProt P11413); assay: inhibition of Homo sapiens G6PD, dose series – biochemical, fluorescence, selectivity assay for P. falciparum G6PD inhibitor project, dose response (AID 504792); assay type: functional

T2 sequence (Q9UBE0 whole entry): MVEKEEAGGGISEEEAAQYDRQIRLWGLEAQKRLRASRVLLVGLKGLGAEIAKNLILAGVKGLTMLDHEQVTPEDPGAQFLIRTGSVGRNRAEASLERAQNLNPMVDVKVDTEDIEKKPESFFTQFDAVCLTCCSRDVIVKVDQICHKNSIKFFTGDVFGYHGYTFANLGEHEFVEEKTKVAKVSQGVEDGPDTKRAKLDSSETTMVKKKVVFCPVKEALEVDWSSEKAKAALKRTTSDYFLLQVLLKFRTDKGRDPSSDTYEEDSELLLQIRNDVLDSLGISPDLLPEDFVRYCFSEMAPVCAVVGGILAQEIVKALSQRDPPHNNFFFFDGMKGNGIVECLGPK
T2 sequence (Q9UBT2 whole entry): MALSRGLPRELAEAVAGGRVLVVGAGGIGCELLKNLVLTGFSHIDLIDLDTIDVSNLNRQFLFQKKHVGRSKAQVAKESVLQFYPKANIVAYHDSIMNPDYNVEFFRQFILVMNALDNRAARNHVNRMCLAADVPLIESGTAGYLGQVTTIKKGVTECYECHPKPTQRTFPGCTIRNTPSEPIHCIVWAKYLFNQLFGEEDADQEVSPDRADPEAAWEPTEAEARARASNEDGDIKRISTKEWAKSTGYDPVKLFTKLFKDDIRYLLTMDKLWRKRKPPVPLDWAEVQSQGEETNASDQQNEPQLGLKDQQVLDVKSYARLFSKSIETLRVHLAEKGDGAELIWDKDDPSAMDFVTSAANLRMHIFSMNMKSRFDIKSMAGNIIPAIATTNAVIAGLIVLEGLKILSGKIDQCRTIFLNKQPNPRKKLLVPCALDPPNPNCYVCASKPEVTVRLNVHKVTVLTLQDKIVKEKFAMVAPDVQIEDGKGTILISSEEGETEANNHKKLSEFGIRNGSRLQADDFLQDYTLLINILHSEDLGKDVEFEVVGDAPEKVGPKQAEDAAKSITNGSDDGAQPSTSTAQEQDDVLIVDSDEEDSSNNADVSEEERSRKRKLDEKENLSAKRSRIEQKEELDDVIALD
Peroxisome proliferator-activated receptor gamma/Nuclear receptor coactivator 3, sequence (P37231 whole entry): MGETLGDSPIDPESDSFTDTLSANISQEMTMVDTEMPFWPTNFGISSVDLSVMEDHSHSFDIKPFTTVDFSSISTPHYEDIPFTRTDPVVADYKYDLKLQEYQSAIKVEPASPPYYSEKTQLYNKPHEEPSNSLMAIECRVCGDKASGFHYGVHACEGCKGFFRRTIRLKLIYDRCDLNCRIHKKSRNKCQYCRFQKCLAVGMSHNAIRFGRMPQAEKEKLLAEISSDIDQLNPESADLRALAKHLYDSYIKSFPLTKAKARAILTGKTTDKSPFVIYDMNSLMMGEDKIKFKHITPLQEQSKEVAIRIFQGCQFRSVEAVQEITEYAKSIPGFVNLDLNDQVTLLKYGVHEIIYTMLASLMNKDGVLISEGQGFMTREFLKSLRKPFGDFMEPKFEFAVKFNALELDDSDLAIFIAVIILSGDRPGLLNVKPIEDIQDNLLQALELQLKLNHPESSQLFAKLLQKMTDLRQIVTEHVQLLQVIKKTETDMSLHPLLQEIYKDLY
Peroxisome proliferator-activated receptor gamma/Nuclear receptor coactivator 3, sequence (Q9Y6Q9 whole entry, further chain): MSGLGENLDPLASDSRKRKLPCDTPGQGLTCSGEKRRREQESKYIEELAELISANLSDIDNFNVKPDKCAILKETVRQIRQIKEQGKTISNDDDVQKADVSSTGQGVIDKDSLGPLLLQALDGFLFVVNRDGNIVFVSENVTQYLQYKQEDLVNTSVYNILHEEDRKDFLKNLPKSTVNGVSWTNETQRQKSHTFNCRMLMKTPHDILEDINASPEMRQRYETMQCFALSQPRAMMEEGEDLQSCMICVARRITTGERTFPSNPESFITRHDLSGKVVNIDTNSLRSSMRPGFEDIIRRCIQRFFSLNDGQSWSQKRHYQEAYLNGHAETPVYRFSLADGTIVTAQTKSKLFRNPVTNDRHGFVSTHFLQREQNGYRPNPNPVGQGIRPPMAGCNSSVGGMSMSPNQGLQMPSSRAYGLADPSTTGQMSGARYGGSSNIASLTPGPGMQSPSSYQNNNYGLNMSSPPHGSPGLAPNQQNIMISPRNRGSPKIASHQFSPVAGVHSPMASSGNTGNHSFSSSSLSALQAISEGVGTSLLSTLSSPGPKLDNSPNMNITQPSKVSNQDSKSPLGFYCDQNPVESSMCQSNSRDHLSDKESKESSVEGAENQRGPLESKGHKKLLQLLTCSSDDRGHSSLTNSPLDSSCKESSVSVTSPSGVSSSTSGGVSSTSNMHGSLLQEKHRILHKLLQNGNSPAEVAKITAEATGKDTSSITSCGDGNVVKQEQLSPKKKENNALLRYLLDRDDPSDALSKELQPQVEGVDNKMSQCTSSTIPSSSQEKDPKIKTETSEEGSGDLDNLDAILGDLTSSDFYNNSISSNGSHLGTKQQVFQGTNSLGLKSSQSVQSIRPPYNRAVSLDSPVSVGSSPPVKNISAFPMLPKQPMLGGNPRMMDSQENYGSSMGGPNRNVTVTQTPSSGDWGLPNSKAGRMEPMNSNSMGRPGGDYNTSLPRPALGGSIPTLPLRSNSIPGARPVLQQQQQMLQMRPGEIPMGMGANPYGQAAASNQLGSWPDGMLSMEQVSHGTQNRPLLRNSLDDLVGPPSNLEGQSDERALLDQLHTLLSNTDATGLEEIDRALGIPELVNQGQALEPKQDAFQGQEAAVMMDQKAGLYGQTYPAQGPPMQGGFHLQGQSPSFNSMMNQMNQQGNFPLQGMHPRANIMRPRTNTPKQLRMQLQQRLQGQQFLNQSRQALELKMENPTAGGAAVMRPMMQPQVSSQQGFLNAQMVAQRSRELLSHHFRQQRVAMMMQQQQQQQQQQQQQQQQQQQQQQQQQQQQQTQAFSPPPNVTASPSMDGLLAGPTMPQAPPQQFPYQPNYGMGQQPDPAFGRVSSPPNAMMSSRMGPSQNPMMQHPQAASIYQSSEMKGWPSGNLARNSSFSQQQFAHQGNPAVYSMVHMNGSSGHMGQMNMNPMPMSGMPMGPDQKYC
Peroxisome proliferator-activated receptor gamma/Nuclear receptor coactivator 2, sequence (P37231 whole entry): as the sequence (P37231 whole entry) above
Peroxisome proliferator-activated receptor gamma/Nuclear receptor coactivator 2, sequence (Q15596 whole entry, further chain): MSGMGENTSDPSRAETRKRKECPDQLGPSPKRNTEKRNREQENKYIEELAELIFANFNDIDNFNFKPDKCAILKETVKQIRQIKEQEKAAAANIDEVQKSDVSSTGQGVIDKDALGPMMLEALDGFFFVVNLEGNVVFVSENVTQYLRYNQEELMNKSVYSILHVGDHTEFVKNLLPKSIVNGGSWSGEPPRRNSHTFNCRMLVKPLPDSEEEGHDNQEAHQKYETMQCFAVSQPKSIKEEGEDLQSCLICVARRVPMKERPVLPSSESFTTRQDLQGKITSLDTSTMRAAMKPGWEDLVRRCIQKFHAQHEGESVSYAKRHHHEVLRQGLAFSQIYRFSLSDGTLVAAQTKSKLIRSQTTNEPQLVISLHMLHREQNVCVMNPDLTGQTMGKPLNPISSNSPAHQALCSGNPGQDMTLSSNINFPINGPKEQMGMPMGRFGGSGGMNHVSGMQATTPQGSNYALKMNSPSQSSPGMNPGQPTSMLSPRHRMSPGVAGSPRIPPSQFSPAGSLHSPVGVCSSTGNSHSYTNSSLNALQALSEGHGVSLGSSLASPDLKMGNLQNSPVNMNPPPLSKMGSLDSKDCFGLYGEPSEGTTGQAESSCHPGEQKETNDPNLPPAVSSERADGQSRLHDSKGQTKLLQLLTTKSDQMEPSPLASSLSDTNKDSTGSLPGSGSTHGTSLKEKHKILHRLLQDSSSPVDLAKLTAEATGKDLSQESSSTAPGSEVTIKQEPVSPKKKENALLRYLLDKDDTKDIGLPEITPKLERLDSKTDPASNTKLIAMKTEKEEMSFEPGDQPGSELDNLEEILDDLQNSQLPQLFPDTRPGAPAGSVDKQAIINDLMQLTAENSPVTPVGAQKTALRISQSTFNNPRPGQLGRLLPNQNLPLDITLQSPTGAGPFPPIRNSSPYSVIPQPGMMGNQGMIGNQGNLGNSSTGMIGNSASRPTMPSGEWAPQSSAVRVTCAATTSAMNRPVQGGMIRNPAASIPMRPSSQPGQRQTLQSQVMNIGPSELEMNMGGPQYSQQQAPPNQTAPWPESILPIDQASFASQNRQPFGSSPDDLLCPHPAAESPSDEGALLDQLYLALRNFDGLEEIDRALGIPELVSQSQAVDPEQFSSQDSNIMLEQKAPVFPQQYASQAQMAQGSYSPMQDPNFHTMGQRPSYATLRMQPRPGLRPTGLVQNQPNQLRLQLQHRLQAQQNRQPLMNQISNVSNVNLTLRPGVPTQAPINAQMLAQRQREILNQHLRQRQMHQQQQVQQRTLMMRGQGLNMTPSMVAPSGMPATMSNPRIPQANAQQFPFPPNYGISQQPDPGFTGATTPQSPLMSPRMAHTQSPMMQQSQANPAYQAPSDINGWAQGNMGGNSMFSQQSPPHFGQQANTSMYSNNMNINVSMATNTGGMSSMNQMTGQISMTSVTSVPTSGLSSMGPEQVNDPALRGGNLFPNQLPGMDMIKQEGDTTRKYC

CCn1c(=O)cc(SCC(=O)Nc2ccc3c(c2)OCO3)c2ccccc21
EC50 [1]: 52.9 µM (inactive) | EC50 [2]: 35.4 µM (not active) | EC50 [3]: > 79.4 µM (not active)

O=C1C([N-]S(=O)(=O)c2cccs2)=C([n+]2cccc(Cc3ccccc3)c2)C(=O)c2ccccc21
EC50 [4]: > 99 µM (inactive) | IC50 (SUMO-activating enzyme [5]): 9.51 µM (active) | EC50 (Streptococcus): 1.6 µM (active) | EC50 [6]: > 260 µM (inactive) | EC50 [7]: 36.5 µM (inactive) | IC50 (SUMO-activating enzyme [8]): 12.9 µM (active) | EC50 [9]: 1.53 µM (active) | AC50 (INS1): 2.69 µM (active)

NC1=NC(=O)/C(=C\c2ccc(O)c([N+](=O)[O-])c2)S1
AC50 [10]: 1.23 µM (active)

O=C(O)C1=CCCN(CCON=C(c2ccccc2)c2ccccc2)C1
AC50 [11]: 35.5 µM (inconclusive)

COC(=O)c1oc2ccc(OC)cc2c1N
AC50 [10]: 1.56 µM (active)

NCC(O)C1CCCCCCC1 (centres undefined)
AC50 [11]: 15.8 µM (inconclusive)

O=C1c2ccccc2-c2cccc(NS(=O)(=O)c3ccc(C(F)(F)F)cc3)c21
EC50 [1]: > 79.4 µM (inactive) | EC50 [2]: > 79.4 µM (not active) | EC50 [3]: > 79.4 µM (not active)

CCCn1cc(S(=O)(=O)CC(=O)Nc2ccc(OC)cc2OC)c2ccccc21
IC50 [12]: 59.9 µM (inactive)
